From ChEMBL document CHEMBL1944549, “Small molecule inhibitors of BRAF in clinical trials” (Bioorg Med Chem Lett, 2012)
One block for each compound: values may come before it.

Columns and labels:
[1] = Antitumor activity against human melanoma cells harboring patient assessed as increase in survival of patient at 1000 mg/kg, iv administered 3 times a week; type: functional; conditions: Melanoma cell
HCT-116 = experiment: Growth inhibition of human HCT116 cells expressing wild-type B-Raf and K-Ras2 G13D mutant after 72 hrs by WST-1 assay; type: functional, cell-based; conditions: HCT-116, 72 h
SK-MEL-2 = experiment: Growth inhibition of human SK-MEL-2 cells expressing wild-type B-Raf and N-Ras2 Q61R mutant after 72 hrs by WST-1 assay; type: functional, cell-based; conditions: SK-MEL-2, 72 h
[2] = Antitumor activity against human melanoma cells assessed as increase in survival of patient at […], po administered BID; type: functional; conditions: Melanoma cell
[3] = Toxicity in po dosed cancer patient bearing B-Raf V600E mutation administered BID; type: organism-based; conditions: human, in vivo

Structure (SMILES): CC(C)(C)c1nc(-c2cccc(NS(=O)(=O)c3c(F)cccc3F)c2F)c(-c2ccnc(N)n2)s1 [DABRAFENIB]
survival at 1000 mg/kg [1]: 64%

EC50 (HCT-116): 1100 nM | EC50 (SK-MEL-2): 1100 nM
Structure (SMILES): CN(C)CCOc1ccc(-c2nc(-c3ccncc3)c(-c3ccc4c(c3)CC/C4=N\O)[nH]2)cc1 [SB590885]

Structure (SMILES): CCCS(=O)(=O)Nc1ccc(F)c(C(=O)c2c[nH]c3ncc(-c4ccc(Cl)cc4)cc23)c1F [VEMURAFENIB]
survival [2]: 84% | MTD [3]: 960 mg
